How the values were obtained:
Format in all cases: in vivo
[1] = system: Spodoptera littoralis (Egyptian Cotton Leafworm); assay: Spodoptera littoralis leaf disc spray test; details: foliar, 72 h, 200 ppm spray on cotton leaf discs, mortality, feeding behavior, growth regulation 3 days after treatment
Method: This Example illustrates the insecticidal and acaricidal properties of compounds of formula (I). Tests were performed as follows:

[2] = system: Diabrotica balteata (Corn Root Worm); assay: Diabrotica balteata larval test on artificial diet; details: 120 h, 200 ppm (concentration in well 18 ppm), L2 larvae, larval mortality and growth regulation after 5 days
Text: (§1) This Example illustrates the insecticidal and acaricidal properties of compounds of formula (I).

[3] = system: Tetranychus urticae (Two-Spotted Spider Mite); assay: Tetranychus urticae leaf disc spray test; details: foliar, 192 h, 200 ppm spray on bean leaf discs, mixed ages, egg, larval and adult mortality 8 days later
Text: as §1

[4] = system: Heliothis virescens (Tobacco Budworm); assay: Heliothis virescens egg test on artificial diet; details: 96 h, 200 ppm (concentration in well 18 ppm), eggs 0-24 h old on artificial diet, egg mortality, larval mortality, growth regulation after 4 days
Text: as §1

[5] = system: Thrips tabaci (Onion Thrips); assay: Thrips tabaci leaf disc spray test; details: foliar, 168 h, 200 ppm spray on sunflower leaf discs, mixed ages, mortality after 7 days
Text: as §1

[6] = system: Plutella xylostella (Diamond Back Moth); assay: Plutella xylostella larval test on artificial diet; details: 144 h, 200 ppm (concentration in well 18 ppm), L2 larvae, larval mortality and growth regulation after 6 days
Text: as §1

Measured: pest or weed control at 200 ppm

Cc1cc(C2=NOC(c3cc(Cl)cc(Cl)c3)(C(F)(F)F)C2)ccc1C(=O)NCC1CSC1 (stereo not shown) [Compound A130, 4-[5-(3,5-dichlorophenyl)-5-(trifluoromethyl)-4H-isoxazol-3-yl]-2-methyl-N-(thietan-3-ylmethyl)benzamide]
≥ 80%: all assays above

Cc1cc(C2=NOC(c3cc(Cl)cc(Cl)c3)(C(F)(F)F)C2)ccc1C(=O)NCC1CS(=O)(=O)C1 (stereo not shown) [Compound A132, 4-[5-(3,5-dichlorophenyl)-5-(trifluoromethyl)-4H-isoxazol-3-yl]-2-methyl-N-(1.1-dioxo-thietan-3-ylmethyl)benzamide]
≥ 80%: all assays above

O=C(NC1CSC1)c1ccc(C2=NOC(c3cc(Cl)cc(Cl)c3)(C(F)(F)F)C2)c([N+](=O)[O-])c1 (stereo not shown) [Compound B55, 4-[5-(3,5-dichlorophenyl)-5-trifluoromethyl-4H-isoxazol-3-yl]-3-nitro-N-(thietan-3-yl)benzamide]
≥ 80%: [1] | [2] | [4] | [6]

O=C(NC1CSC1)c1ccc(C2=NOC(c3cc(Cl)cc(Cl)c3)(C(F)(F)F)C2)cc1[N+](=O)[O-] (stereo not shown) [Compound B56, 4-[5-(3,5-dichlorophenyl)-5-trifluoromethyl-4H-isoxazol-3-yl]-2-nitro-N-(thietan-3-yl)benzamide]
≥ 80%: all assays above

Nc1cc(C2=NOC(c3cc(Cl)cc(Cl)c3)(C(F)(F)F)C2)ccc1C(=O)NC1CSC1 (stereo not shown) [Compound B57, 4-[5-(3,5-dichlorophenyl)-5-trifluoromethyl-4H-isoxazol-3-yl]-2-amino-N-(thietan-3-yl)benzamide]
not listed: [5]
≥ 80%: all other assays above

CCc1cc(C2=NOC(c3cc(Cl)cc(Cl)c3)(C(F)(F)F)C2)ccc1C(=O)NC1CSC1 (stereo not shown) [Compound B69, 4-[5-(3,5-dichlorophenyl)-5-trifluoromethyl-4H-isoxazol-3-yl]-2-ethyl-N-(thietan-3-yl)benzamide]
≥ 80%: all assays above

Cc1cc(C2=NOC(c3cc(C(C)(C)C)c[nH]3)(C(F)(F)F)C2)ccc1C(=O)NC1CSC1 (stereo not shown) [Compound C003, 4-[5-(4-tert-butyl-1H-pyrrol-2-yl)-5-(trifluoromethyl)-4H-isoxazol-3-yl]-2-methyl-N-(thietan-3-yl)benzamide]
≥ 80%: [4]

Cc1cc(C2=NOC(c3cn(CC(F)F)cc3C(C)(C)C)(C(F)(F)F)C2)ccc1C(=O)NC1CSC1 (stereo not shown) [Compound C005, 4-[5-[4-tert-butyl-1-(2,2-difluoroethyl)pyrrol-3-yl]-5-(trifluoromethyl)-4H-isoxazol-3-yl]-2-methyl-N-(thietan-3-yl)benzamide]
not listed: [5]
≥ 80%: all other assays above

Cc1cc(C2=NOC(c3cc(C(F)(F)F)n(C)c3)(C(F)(F)F)C2)ccc1C(=O)NC1CSC1 (stereo not shown) [Compound C006, 2-methyl-4-[5-[1-methyl-5-(trifluoromethyl)pyrrol-3-yl]-5-(trifluoromethyl)-4H-isoxazol-3-yl]-N-(thietan-3-yl)benzamide]
not listed: [4]
≥ 80%: all other assays above

Cc1cc(C2=NOC(c3cc(C(F)(F)F)n(CC(F)F)c3)(C(F)(F)F)C2)ccc1C(=O)NC1CSC1 (stereo not shown) [Compound C007, 4-[5-[1-(2,2-difluoroethyl)-5-(trifluoromethyl)pyrrol-3-yl]-5-(trifluoromethyl)-4H-isoxazol-3-yl]-2-methyl-N-(thietan-3-yl)benzamide]
≥ 80%: all assays above

Cc1cc(C2=NOC(c3c[nH]c(C(F)(F)F)c3)(C(F)(F)F)C2)ccc1C(=O)NC1CS(=O)(=O)C1 (stereo not shown) [Compound C008, N-(1,1-dioxothietan-3-yl)-2-methyl-4-[5-(trifluoromethyl)-5-[5-(trifluoromethyl)-1H-pyrrol-3-yl]-4H-isoxazol-3-yl]benzamide]
≥ 80%: [3] | [4] | [5]

Cc1cc(C2=NOC(c3c[nH]c(C(F)(F)F)c3)(C(F)(F)F)C2)ccc1C(=O)NC1C[S+]([O-])C1 (stereo not shown) [Compound C009, 2-methyl-N-(1-oxothietan-3-yl)-4-[5-(trifluoromethyl)-5-[5-(trifluoromethyl)-1H-pyrrol-3-yl]-4H-isoxazol-3-yl]benzamide]
≥ 80%: [3] | [5] | [6]

Cc1cc(C2=NOC(c3c[nH]c(C(F)(F)F)c3)(C(F)(F)F)C2)ccc1C(=O)NC1CSC1 (stereo not shown) [Compound C010, 2-methyl-N-(thietan-3-yl)-4-[5-(trifluoromethyl)-5-[5-(trifluoromethyl)-1H-pyrrol-3-yl]-4H-isoxazol-3-yl]benzamide]
≥ 80%: [3] | [5]

Cc1cc(C2=[N+]([O-])OC(c3cc(Cl)cc(Cl)c3)(C(F)(F)F)C2)ccc1C(=O)NC1CSC1 (stereo not shown) [Compound C011, 4-[5-(3,5-dichlorophenyl)-2-oxido-5-(trifluoromethyl)-4H-isoxazol-2-ium-3-yl]-2-methyl-N-(thietan-3-yl)benzamide]
≥ 80%: [1] | [2] | [4]

Cc1cc(C2=[N+]([O-])OC(c3cc(Cl)cc(Cl)c3)(C(F)(F)F)C2)ccc1C(=O)NC1CS(=O)(=O)C1 (stereo not shown) [Compound C012, 4-[5-(3,5-dichlorophenyl)-2-oxido-5-(trifluoromethyl)-4H-isoxazol-2-ium-3-yl]-N-(1,1-dioxothietan-3-yl)-2-methyl-benzamide]
not listed: [5]
≥ 80%: all other assays above

Cc1cc(C2=NOC(c3cc(Cl)cc(Cl)c3)(C(F)(F)F)C2)ccc1C(=O)N1CC2(CSC2)C1 (stereo not shown) [Compound C013, [4-[5-(3,5-dichlorophenyl)-5-(trifluoromethyl)-4H-isoxazol-3-yl]-2-methyl-phenyl]-(6-thia-2-azaspiro[3.3]heptan-2-yl)methanone]
≥ 80%: [2] | [3] | [5] | [6]
